{"source": "ChEMBL document CHEMBL5584224", "about": "“Recent advances in c-Met-based dual inhibitors in the treatment of cancers” (Eur J Med Chem, 2024)", "key": {"HCC827": {"test_system": "HCC827", "test": "Antiproliferative activity against human HCC827 cells", "format": "functional, cell-based"}, "[1]": {"biological_target": "T1, Tyrosine-protein kinase receptor UFO (Homo sapiens, UniProt P30530)", "T1 sequence (P30530 whole entry)": "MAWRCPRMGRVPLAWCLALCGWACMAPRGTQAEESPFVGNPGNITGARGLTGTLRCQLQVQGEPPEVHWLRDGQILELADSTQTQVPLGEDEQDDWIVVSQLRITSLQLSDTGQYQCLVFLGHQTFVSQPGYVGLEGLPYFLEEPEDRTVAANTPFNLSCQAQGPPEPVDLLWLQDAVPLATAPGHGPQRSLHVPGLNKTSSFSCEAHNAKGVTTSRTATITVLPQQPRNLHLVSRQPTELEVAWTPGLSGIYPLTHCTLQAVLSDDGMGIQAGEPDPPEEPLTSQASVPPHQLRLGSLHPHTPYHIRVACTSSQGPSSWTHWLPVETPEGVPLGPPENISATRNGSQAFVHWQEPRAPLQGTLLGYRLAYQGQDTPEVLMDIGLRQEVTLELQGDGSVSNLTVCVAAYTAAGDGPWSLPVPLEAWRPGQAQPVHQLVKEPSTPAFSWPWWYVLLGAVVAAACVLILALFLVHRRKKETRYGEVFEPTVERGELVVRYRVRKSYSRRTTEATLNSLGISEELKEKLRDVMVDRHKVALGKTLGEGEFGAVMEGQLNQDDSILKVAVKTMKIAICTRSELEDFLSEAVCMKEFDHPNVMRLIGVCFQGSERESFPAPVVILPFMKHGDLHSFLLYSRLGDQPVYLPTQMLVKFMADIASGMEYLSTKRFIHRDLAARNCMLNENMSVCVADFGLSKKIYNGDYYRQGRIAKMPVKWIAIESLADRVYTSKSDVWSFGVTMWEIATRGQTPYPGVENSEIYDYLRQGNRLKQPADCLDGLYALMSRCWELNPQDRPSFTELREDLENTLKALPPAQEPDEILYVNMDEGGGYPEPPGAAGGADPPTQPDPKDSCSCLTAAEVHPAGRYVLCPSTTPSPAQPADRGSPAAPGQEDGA", "test": "Inhibition of AXL (unknown origin)"}, "[2]": {"biological_target": "T2, Hepatocyte growth factor receptor (Homo sapiens, UniProt P08581)", "T2 sequence (P08581 whole entry)": "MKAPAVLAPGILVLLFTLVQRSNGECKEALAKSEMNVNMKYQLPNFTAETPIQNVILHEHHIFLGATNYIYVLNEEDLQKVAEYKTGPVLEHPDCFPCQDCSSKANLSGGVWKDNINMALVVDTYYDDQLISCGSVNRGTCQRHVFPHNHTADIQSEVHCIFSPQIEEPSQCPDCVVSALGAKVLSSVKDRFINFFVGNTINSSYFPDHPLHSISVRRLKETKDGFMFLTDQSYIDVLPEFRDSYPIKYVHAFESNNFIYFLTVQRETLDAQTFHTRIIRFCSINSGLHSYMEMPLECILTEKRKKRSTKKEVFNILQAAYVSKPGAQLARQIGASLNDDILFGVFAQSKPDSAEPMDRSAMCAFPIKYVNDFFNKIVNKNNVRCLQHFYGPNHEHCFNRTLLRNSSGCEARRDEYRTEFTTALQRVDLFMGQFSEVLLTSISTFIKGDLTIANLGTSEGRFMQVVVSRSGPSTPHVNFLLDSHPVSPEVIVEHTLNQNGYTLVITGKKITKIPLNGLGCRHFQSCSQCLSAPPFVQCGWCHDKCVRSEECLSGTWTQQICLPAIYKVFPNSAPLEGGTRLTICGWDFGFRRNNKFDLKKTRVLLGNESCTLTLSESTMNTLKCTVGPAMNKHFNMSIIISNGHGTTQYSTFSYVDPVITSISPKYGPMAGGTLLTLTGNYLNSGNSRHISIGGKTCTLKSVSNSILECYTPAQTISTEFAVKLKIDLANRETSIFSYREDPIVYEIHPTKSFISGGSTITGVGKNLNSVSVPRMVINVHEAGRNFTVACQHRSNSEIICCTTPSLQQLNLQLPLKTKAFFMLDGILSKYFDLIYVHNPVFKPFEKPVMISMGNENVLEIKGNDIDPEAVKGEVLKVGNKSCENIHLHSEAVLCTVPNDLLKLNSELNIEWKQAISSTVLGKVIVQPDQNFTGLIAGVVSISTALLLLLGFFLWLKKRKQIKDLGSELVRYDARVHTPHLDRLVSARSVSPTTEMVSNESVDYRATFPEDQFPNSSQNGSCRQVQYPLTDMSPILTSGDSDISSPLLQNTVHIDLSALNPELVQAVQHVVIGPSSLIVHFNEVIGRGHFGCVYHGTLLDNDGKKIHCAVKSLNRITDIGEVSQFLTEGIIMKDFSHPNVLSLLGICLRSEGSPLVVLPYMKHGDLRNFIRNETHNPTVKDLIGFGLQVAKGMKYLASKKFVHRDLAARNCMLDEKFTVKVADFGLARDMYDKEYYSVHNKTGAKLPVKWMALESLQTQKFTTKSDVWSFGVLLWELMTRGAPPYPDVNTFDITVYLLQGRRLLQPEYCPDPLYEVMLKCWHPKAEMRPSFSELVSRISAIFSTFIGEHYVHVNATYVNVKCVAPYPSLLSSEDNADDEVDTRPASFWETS", "description": "Inhibition of c-MET (unknown origin)"}, "[3]": {"biological_target": "T3, ALK tyrosine kinase receptor (Homo sapiens, UniProt Q9UM73)", "T3 sequence (Q9UM73 whole entry)": "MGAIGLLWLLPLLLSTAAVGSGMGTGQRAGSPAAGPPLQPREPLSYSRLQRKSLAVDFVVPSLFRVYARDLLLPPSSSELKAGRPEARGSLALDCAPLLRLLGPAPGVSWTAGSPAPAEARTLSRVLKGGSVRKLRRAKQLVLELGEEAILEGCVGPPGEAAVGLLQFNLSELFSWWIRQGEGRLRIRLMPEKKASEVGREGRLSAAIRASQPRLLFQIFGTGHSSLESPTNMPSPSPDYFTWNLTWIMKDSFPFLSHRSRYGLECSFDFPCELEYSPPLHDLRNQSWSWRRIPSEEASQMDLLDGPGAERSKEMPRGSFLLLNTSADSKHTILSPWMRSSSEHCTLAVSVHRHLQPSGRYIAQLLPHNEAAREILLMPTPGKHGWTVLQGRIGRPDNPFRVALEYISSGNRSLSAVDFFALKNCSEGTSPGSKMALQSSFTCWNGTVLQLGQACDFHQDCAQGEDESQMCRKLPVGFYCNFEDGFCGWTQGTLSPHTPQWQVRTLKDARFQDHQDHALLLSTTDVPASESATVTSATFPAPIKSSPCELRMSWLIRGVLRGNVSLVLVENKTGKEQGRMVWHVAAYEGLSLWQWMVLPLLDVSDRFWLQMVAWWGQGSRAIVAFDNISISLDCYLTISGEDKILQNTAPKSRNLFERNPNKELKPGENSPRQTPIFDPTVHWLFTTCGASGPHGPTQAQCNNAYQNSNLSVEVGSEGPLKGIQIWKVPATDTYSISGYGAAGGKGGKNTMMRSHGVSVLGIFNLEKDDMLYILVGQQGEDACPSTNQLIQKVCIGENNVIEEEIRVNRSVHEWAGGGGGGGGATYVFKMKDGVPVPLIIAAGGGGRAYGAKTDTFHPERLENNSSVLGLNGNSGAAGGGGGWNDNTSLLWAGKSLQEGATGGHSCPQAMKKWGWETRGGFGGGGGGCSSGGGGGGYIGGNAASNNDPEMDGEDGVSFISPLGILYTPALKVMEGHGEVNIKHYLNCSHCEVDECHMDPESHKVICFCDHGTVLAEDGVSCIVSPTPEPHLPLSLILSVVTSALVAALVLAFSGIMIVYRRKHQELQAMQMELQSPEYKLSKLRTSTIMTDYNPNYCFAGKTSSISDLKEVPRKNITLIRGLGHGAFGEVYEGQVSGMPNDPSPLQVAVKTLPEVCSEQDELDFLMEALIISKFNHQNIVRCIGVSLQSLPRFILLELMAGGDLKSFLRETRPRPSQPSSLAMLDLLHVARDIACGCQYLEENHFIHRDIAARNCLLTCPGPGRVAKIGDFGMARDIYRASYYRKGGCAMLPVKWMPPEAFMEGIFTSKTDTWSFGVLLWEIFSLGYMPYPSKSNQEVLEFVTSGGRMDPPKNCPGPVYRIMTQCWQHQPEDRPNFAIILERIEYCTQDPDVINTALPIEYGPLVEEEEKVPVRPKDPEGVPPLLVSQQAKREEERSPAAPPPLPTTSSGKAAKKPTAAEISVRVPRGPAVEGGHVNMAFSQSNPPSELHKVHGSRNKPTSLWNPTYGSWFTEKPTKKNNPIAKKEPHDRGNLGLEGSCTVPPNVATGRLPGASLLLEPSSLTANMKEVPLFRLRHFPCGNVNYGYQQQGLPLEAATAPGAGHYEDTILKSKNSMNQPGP", "test": "Inhibition of ALK (unknown origin)"}, "A-431": {"test_system": "A-431", "test": "Antiproliferative activity against human A-431 cells assessed as reduction in cell viability incubated for 24 hrs by MTT assay", "format": "functional, cell-based", "details": "A-431, 24 h"}, "NCI-H1975": {"test_system": "NCI-H1975", "test": "Antiproliferative activity against human NCI-H1975 cells assessed as reduction in cell viability incubated for 48 hrs by MTT assay", "format": "functional, cell-based", "details": "NCI-H1975, 48 h"}, "Histone deacetylase 1": {"biological_target": "Histone deacetylase 1 (Homo sapiens, UniProt Q13547)", "sequence (Q13547 whole entry)": "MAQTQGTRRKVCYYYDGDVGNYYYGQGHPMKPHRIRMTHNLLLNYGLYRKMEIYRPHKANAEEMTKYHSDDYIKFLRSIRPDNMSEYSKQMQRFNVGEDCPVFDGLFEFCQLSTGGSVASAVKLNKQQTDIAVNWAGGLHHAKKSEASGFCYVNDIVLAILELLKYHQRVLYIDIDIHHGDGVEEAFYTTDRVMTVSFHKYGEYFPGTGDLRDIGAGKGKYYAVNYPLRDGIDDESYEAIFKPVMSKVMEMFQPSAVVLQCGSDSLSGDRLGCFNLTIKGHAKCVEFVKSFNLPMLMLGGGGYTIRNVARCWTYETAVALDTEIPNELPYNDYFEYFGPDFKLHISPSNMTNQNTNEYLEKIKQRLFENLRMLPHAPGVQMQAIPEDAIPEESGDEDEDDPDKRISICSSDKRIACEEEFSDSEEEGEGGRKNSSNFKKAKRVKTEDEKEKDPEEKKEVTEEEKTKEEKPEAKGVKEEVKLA", "test": "Inhibition of HDAC1 (unknown origin) expressed in Sf9 cells using Z-Lys(Ac)-AMC as fluorogenic substrate preincubated for 60 mins followed by substrate addition and measured after 1 hr by fluorescence based microplate analysis"}, "[4]": {"biological_target": "T2, Hepatocyte growth factor receptor", "test": "Inhibition of c-Met (unknown origin) by mobility shift assay"}, "A549": {"test_system": "A549", "test": "Antiproliferative activity against human A549 cells assessed as reduction in cell viability incubated for 24 hrs by MTT assay", "format": "functional, cell-based", "details": "A549, 24 h"}, "NCI-H322M": {"test_system": "NCI-H322M", "test": "Antiproliferative activity against human NCI-H322M cells assessed as cell growth inhibition incubated for 72 hrs by MTT assay", "format": "functional, cell-based"}, "KB 3-1": {"test_system": "KB 3-1", "test": "Antiproliferative activity against human KB-3-1 cells assessed as cell growth inhibition", "format": "functional, cell-based"}, "MDA-MB-231": {"test_system": "MDA-MB-231", "test": "Antiproliferative activity against human MDA-MB-231 cells assessed as reduction in cell viability by MTT assay", "format": "functional, cell-based"}, "BT-549": {"test_system": "BT-549", "test": "Antiproliferative activity against human BT-549 cells assessed as reduction in cell viability by MTT assay", "format": "functional, cell-based"}, "4T1": {"test_system": "4T1", "test": "Antiproliferative activity against mouse 4T1 cells assessed as reduction in cell viability by MTT assay", "format": "functional, cell-based"}, "[5]": {"biological_target": "T3, ALK tyrosine kinase receptor", "description": "Inhibition of ALK (unknown origin) by TR-FRET assay"}}, "note": "pIC50: −log10 of the molar value.", "data": [{"smiles": "COCCN1CCN(C(=O)C#Cc2c(Oc3ccc(NC(=O)c4cn(C(C)C)c(=O)n(-c5ccc(F)cc5)c4=O)cc3F)ccnc2N)CC1", "values": [{"measurement": "pIC50", "setting": "HCC827", "value": "> 7.00"}]}, {"smiles": "CC(C)n1cc(C(=O)Nc2ccc(Oc3ccnc4c3Oc3ccccc3N4)c(F)c2)c(=O)c(-c2ccc(F)cc2)c1", "values": [{"measurement": "pIC50", "setting": "[1]", "value": 8.15}]}, {"smiles": "Nc1nccc(Oc2ccc(NC(=O)c3ccnn(-c4ccc(F)cc4)c3=O)cc2F)c1C#CCC1CCNCC1", "values": [{"measurement": "pIC50", "setting": "HCC827", "value": "> 7.00"}, {"measurement": "pIC50", "setting": "[2]", "value": 8.00}]}, {"smiles": "CN1CCc2ccc(COCC3Cc4cn5ncnc(-c6cnn(C7CCNCC7)c6)c5c4C3)cc21", "note": "(configuration not stated)", "values": [{"measurement": "pIC50", "setting": "[3]", "value": 7.69}, {"measurement": "pIC50", "setting": "A-431", "value": 6.13}, {"measurement": "pIC50", "setting": "NCI-H1975", "value": 7.07}]}, {"smiles": "Cc1nc(Cn2cc(C(=O)Nc3ccc(Oc4ccnc(N)c4C#CCC4CCN(C)CC4)c(F)c3)c(=O)n(-c3ccc(F)cc3)c2=O)cs1", "values": [{"measurement": "pIC50", "setting": "HCC827", "value": "> 7.00"}]}, {"smiles": "Nc1ccccc1NC(=O)c1ccc(OCCCOc2ccc3c(OCCn4nc(-c5cn[nH]c5)ccc4=O)ccnc3c2)cn1", "values": [{"measurement": "pIC50", "setting": "Histone deacetylase 1", "value": 7.42}, {"measurement": "pIC50", "setting": "[4]", "value": 9.15}]}, {"smiles": "COCCN1CCN(C(=O)C#Cc2c(Oc3ccc(NC(=O)c4ccnn(-c5ccc(F)cc5)c4=O)cc3F)ccnc2N)CC1", "values": [{"measurement": "pIC50", "setting": "HCC827", "value": "> 7.00"}]}, {"smiles": "CC(C)n1cc(C(=O)Nc2ccc(Oc3ccnc(N)c3C#CC(=O)N3CCNCC3)c(F)c2)c(=O)n(-c2ccc(F)cc2)c1=O", "values": [{"measurement": "pIC50", "setting": "HCC827", "value": "> 7.00"}]}, {"smiles": "COc1cc2nccc(Oc3ccc(Nc4nccc5ccn(-c6ccc(Br)cc6)c(=O)c45)cc3F)c2cc1OC", "values": [{"measurement": "pIC50", "setting": "[1]", "value": "< 6.00"}]}, {"smiles": "COc1cc2nccc(Oc3ccc(Nc4nccc5ccn(-c6ccc(C)cc6)c(=O)c45)cc3F)c2cc1OC", "values": [{"measurement": "pIC50", "setting": "[1]", "value": 7.76}]}, {"smiles": "c1ccc2oc(COCC3Cc4cn5ncnc(-c6cnn(C7CCNCC7)c6)c5c4C3)cc2c1", "note": "(configuration not stated)", "values": [{"measurement": "pIC50", "setting": "A-431", "value": "< 6.00"}, {"measurement": "pIC50", "setting": "NCI-H1975", "value": 7.22}]}, {"smiles": "N#CC1=C(N)OC2=C(c3sc(N)c(C#N)c3CC2)C1c1ccccc1", "note": "(configuration not stated)", "values": [{"measurement": "pIC50", "setting": "[2]", "value": 8.08}]}, {"smiles": "Fc1ccc(Cl)c(COCC2Cc3cn4ncnc(-c5cnn(C6CCNCC6)c5)c4c3C2)c1Cl", "note": "(configuration not stated)", "values": [{"measurement": "pIC50", "setting": "[3]", "value": 9.62}, {"measurement": "pIC50", "setting": "A-431", "value": 7.00}, {"measurement": "pIC50", "setting": "NCI-H1975", "value": 8.21}]}, {"smiles": "COCCN1CCN(C(C)(C)C#Cc2c(Oc3ccc(NC(=O)c4cn(C(C)C)c(=O)n(-c5ccc(F)cc5)c4=O)cc3F)ccnc2N)CC1", "values": [{"measurement": "pIC50", "setting": "HCC827", "value": "> 7.00"}]}, {"smiles": "C/C=C(/C=O)[C@@H](CC=O)CC(=O)OCCc1ccc(O)cc1", "note": "[(-)-OLEOCANTHAL]", "values": [{"measurement": "pIC50", "setting": "A549", "value": 5.00}, {"measurement": "pIC50", "setting": "NCI-H322M", "value": 4.58}]}, {"smiles": "COc1cc2c(c(OC)c1OC)-c1ccc(OC)c(=O)cc1[C@@H](NC(C)=O)CC2", "note": "[COLCHICINE]", "values": [{"measurement": "pIC50", "setting": "KB 3-1", "value": 5.72}]}, {"smiles": "COc1cc2nc(N3CCN(C(=O)C4COc5ccccc5O4)CC3)nc(N)c2cc1OC", "note": "(configuration not stated) [DOXAZOSIN]", "values": [{"measurement": "pIC50", "setting": "MDA-MB-231", "value": 4.62}, {"measurement": "pIC50", "setting": "BT-549", "value": 4.61}, {"measurement": "pIC50", "setting": "4T1", "value": 5.11}]}, {"smiles": "COc1cccc2c1C(=O)c1c(O)c3c(c(O)c1C2=O)C[C@@](O)(C(=O)CO)C[C@@H]3O[C@H]1C[C@H](N)[C@H](O)[C@H](C)O1", "note": "[DOXORUBICIN]", "values": [{"measurement": "pIC50", "setting": "KB 3-1", "value": 8.22}]}, {"smiles": "COc1cc(N2CCNC[C@@H]2C)ncc1-c1cnc(N)c(O[C@H](C)c2c(Cl)ccc(F)c2Cl)c1", "note": "[ENVONALKIB]", "values": [{"measurement": "pIC50", "setting": "[5]", "value": 7.84}]}, {"smiles": "COCCNCc1ccc(-c2cc3nccc(Oc4ccc(NC(=S)NC(=O)Cc5ccc(F)cc5)cc4F)c3s2)nc1", "note": "[GLESATINIB]", "values": [{"measurement": "pIC50", "setting": "KB 3-1", "value": 8.40}]}, {"smiles": "Cc1c(C(=O)Nc2ccc(Oc3ccnc4cc(OCC(C)(C)O)ccc34)c(F)c2)c(=O)n(-c2ccccc2)n1C", "note": "[NINGETINIB]", "values": [{"measurement": "pIC50", "setting": "[2]", "value": 7.48}]}, {"smiles": "CC(=O)O[C@H]1C(=O)[C@@]2(C)[C@H]([C@H](OC(=O)c3ccccc3)[C@]3(O)C[C@H](OC(=O)[C@H](O)[C@@H](NC(=O)c4ccccc4)c4ccccc4)C(C)=C1C3(C)C)[C@]1(OC(C)=O)CO[C@@H]1C[C@@H]2O", "note": "[PACLITAXEL]", "values": [{"measurement": "pIC50", "setting": "KB 3-1", "value": 7.54}]}]}
